The values that follow come from PMC7138454 (Journal of medicinal chemistry, 2014).

The test deals with OXE receptor (Homo sapiens, UniProt Q8TDS5). In words: 5-oxo-ETE-induced calcium mobilization in indo-1-loaded neutrophils. Format: cell-based. Conditions: 5-oxo-ETE 10 nM; for Effect on 5-oxo-ETE-induced calcium mobilization: compound 10 μM. (In general: Calcium assays in cells follow changes in intracellular calcium, usually with a dye or a luminescent sensor.)
Sequence of OXE receptor (Q8TDS5 whole entry): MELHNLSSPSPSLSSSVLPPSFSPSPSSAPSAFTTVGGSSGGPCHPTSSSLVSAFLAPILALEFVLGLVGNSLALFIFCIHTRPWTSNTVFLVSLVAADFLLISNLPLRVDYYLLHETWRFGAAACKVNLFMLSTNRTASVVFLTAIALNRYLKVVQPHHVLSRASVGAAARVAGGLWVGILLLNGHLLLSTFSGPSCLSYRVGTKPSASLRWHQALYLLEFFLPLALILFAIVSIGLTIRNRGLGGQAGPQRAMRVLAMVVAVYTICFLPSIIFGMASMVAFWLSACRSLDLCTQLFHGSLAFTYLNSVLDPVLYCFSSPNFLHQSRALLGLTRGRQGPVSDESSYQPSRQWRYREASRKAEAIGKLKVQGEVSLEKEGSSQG

On to `CCCCc1cc2ccccc2n1C(=O)CCCC(=O)O` [compound 8], for which, under “calcium mobilization”, the “Reduction in antagonist potency relative to 10” value is given as “over 10 fold”.
Turning to `CCCCCc1cc2ccccc2n1C(=O)CCCC(=O)O` [compound 9], the “Antagonist potency compared with 10” value (calcium mobilization) is on record as “small decrease in potency”.
As to `CCCCCCc1cc2ccccc2n1C(=O)CCCC(=O)O` [compound 10], the “Effect on 5-oxo-ETE-induced calcium mobilization” value is listed as “completely abolished”.
Consider `CCCCCCCc1cc2ccccc2n1C(=O)CCCC(=O)O` [compound 11], for which the “Antagonist potency compared with 10” value (calcium mobilization) was “slightly increased potency”.
Still for that read-out and setting: the result for `CCCCCCCCc1cc2ccccc2n1C(=O)CCCC(=O)O` [compound 12] reads “slightly increased potency”; that for `CCCCCCCCCCCc1cc2ccccc2n1C(=O)CCCC(=O)O` [compound 13], “slightly increased potency”.
Still for that read-out and setting: the value for `CCCC/C=C/c1cc2ccccc2n1C(=O)CCCC(=O)O` [compound 14, 5-(2-Hex-1-enyl-indol-1-yl)-5-oxo-pentanoic acid] was “reduced potency”.
`CCCCCCCCC/C=C\c1cc2ccccc2n1C(=O)CCCC(=O)O` [compound 15, (Z)-5-oxo-5-(2-(undec-1-en-1-yl)-1H-indol-1-yl)pentanoic acid]: the “Antagonist potency compared with 13” value (calcium mobilization) was “little effect”.
Regarding `CCCCCCc1cc2ccccc2n1C(=O)CC(C)(C)CC(=O)O` [compound 17, 5-(2-hexyl-1H-indol-1-yl)-3,3-dimethyl-5-oxopentanoic acid], under “calcium mobilization”, the “Reduction in antagonist potency relative to 10” value is listed as “about 10 fold”.
As to `CCCCCCc1cc2ccccc2n1C(=O)CC1(CC(=O)O)CC1` [compound 25, 2-(1-(2-(2-hexyl-1H-indol-1-yl)-2-oxoethyl)cyclopropyl)acetic acid], the “Antagonist potency compared with 10” value (calcium mobilization) was “relatively little effect”.
Consider `CCCCCCc1cc2ccccc2n1C(=O)CC(C)CC(=O)O` (stereo not shown) [compound 27, 5-(2-hexyl-1H-indol-1-yl)-3-methyl-5-oxopentanoic acid], for which the “Increase in antagonist potency relative to 10” value (calcium mobilization) was “over 10 times”.
`CCCCCCc1cc2ccccc2n1C(=O)CCC(=O)O` [compound 29, 4-(2-Hexyl-indol-1-yl)-4-oxo-butyric acid]: the “Antagonist potency compared with 10” value (calcium mobilization) is on record as “nearly eliminated antagonist activity”.
Regarding `CCCCCCc1cc2ccc(Br)cc2n1C(=O)CC(C)CC(=O)O` (stereo not shown) [compound 35, 5-(6-bromo-2-hexyl-1-H-indol-1-yl)-3-methyl-5-oxo-pentanoic acid], the “Increase in antagonist potency relative to 27” value (calcium mobilization) is “approximately 3 fold”.
For `CCCCCCc1cc2ccc(OC)cc2n1C(=O)CC(C)CC(=O)O` (stereo not shown) [compound 36, 5-(2-hexyl-6-methoxy-1-H-indol-1-yl)-3-methyl-5-oxo-pentanoic acid], for the setting “calcium mobilization”, the “Antagonist potency compared with 27” value was “reduced potency by several fold”.
Same read-out and setting: the result for `CCCCCCc1cc2cc(Cl)ccc2n1C(=O)CC(C)CC(=O)O` (stereo not shown) [compound 41, 5-(5-chloro-2-hexyl-1-H-indol-1-yl)-3-methyl-5-oxo-pentanoic acid] reads “relatively little effect”; that for `CCCCCCc1cc2cc(Br)ccc2n1C(=O)CC(C)CC(=O)O` (stereo not shown) [compound 42, 5-(5-bromo-2-hexyl-1-H-indol-1-yl)-3-methyl-5-oxo-pentanoic acid], “reduced potency by several fold”; that for `CCCCCCc1c(C)c2ccccc2n1C(=O)CC(C)CC(=O)O` (stereo not shown) [compound 47, 5-(2-hexyl-3-methyl-1-H-indol-1-yl)-3-methyl-5-oxo-pentanoic acid], “relatively little effect”.
As to `CCCCCCc1[nH]c2ccccc2c1C(=O)CCCC(=O)O` [compound 48, 5-(2-Hexyl-1H-indol-3-yl)-5-oxo-pentanoic acid], the “Effect on 5-oxo-ETE-induced calcium mobilization” value is “modest antagonist effect”.
`CCCCCCc1c(C(=O)CCCC(=O)O)c2ccccc2n1C` [compound 50, 5-(2-hexyl-1-methyl-1-H-indol-3-yl)-5-oxo-pentanoic acid]: for the setting “calcium mobilization”, the “Antagonist potency compared with 48” value is “slightly increased potency”.
